Measured values reported in patent US7205417B2, “Spiro compounds” (Banyu Pharmaceutical Co., Ltd., priority 2001, dated 2007).

Target: T1, human NPY Y5 receptor (Homo sapiens, UniProt Q15761)
T1 construct: expressed in transfected cells; host or cells: COS-7, CHO and LM(tk-) cells; vectors pcDNA3, pRc/RSV, pCI-neo; membrane preparation
T1 sequence (Q15761 1-445): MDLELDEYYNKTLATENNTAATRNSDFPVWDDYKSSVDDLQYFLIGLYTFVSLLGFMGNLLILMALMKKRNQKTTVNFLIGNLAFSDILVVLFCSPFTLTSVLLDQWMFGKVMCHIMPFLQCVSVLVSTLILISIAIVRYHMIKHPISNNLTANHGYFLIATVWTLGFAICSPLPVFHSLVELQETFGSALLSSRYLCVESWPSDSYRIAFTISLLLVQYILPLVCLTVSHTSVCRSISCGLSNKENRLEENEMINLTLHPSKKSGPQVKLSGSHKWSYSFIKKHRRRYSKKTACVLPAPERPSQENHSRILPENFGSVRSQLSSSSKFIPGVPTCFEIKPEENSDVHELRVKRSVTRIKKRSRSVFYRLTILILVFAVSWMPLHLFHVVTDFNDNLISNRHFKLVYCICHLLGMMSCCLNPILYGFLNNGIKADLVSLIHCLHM
Assay: NPY binding inhibition test
Conditions: [125I]peptideYY binding to membrane sample from cells expressing NPY Y5 receptor, 25° C., 2 hours; read-out: NPY receptors binding inhibition IC50
Excerpt: Pharmacological Test (NPY Binding Inhibition Test)
A sequence coding for human NPY Y5 receptor (c.f. International patent publication number W096/16542) was cloned into expression vectors pcDNA3, pRc/RSV (made by Invitrogen Inc.) and pCI-neo (made by Promega Inc.). The expression vectors thus obtained were transfected to host cells COS-7, CHO and LM(tk-) (American Type Culture Collection) by cationic lipid method (Proceedings of the National Academy of Sciences of the United States of America, vol. 84: p. 7413(1987)) to give NPY Y5 receptor expression cells.
A membrane sample prepared from the cells which expressed NPY Y5 receptor was incubated together with a test compound and [^125I]peptideYY (made by NEN) (20,000 cpm) in an assay buffer (25 mM Tris buffer, pH 7.4, containing 10 mM magnesium chloride, 1 mM phenylmethylsulfonyl fluoride, 0.1% bacitracin and 0.5% bovine serum albumin) at 25° C. for 2 hours, then filtered through a glass filter GF/C and washed with 5 mM Tris buffer (pH7.4) containing 0.3% BSA. The radioactivity of the cake on the glass filter was measured. Non-specific binding was measured in the presence of 1 μM peptide YY, and 50% Inhibitory Concentration (IC50) of the test compound against specific peptideYY binding was determined (Endocrinology, vol. 131: p. 2090(1992)).

SMILES | IC50
O=C1OC2(CCC(C(=O)NC3CCC(c4ccccc4)CC3)CC2)c2ccccc21 (stereo not drawn) [Example 1, trans-3′-oxo-N-(trans-4-phenylcyclohexyl)-spiro[cyclohexane-1,1′(3′H)-isobenzofuran]-4-carboxamide] | 2.5 nM
O=C1OC2(CCC(C(=O)NC3CCC(c4cccc(F)c4)CC3)CC2)c2ncccc21 (stereo not drawn) [Example 27, Trans-N-[trans-4-(3-fluorophenyl)cyclohexyl]-3-oxospiro[7-azaisobenzofuran-1(3H),1′-cyclohexane]-4′-carboxamide] | 3.6 nM
O=C1OC2(CCC(C(=O)NC(CNCc3ccccc3)Cc3ccccc3)CC2)c2ccccc21 (centres unmarked) [Example 32] | 1.7 nM
CS(=O)(=O)N1CC2(CCC(C(=O)NC(Cc3ccncc3)C(=O)NCc3ccccc3)CC2)c2ccccc21 (stereo not drawn) [Example 46, Trans-N-[1-benzylcarbamoyl-2-(4-pyridyl)ethyl]-1-methylsulfonylspiro[indoline-3,1′-cyclohexane]-4′-carboxamide] | 2 nM

Next, values leading:

IC50 | SMILES
1.7 nM | O=C1OC2(CCC(C(=O)NC3CCN(c4ccccc4F)CC3)CC2)c2ccccc21 (stereo not drawn) [Example 5, Trans-N-[1-(2-fluorophenyl)-4-piperidyl]-3′-oxo-spiro[cyclohexane-1,1′(3′H)-isobenzofuran]-4-carboxamide]
0.8 nM | CS(=O)(=O)N1CC2(CCC(C(=O)NC3CCN(c4cccc(F)c4)CC3)CC2)c2ccccc21 (stereo not drawn) [Example 36, Trans-N-[1-(3-fluorophenyl)-4-piperidyl]-1-methanesulfonyl-spiro[indoline-3,1′-cyclohexane]-4′-carboxamide]
1.2 nM | CS(=O)(=O)N1CC2(CCC(C(=O)NC3CCN(c4ccccc4)C3)CC2)c2ccccc21 [Example 41, Trans-1-methanesulfonyl-N-[(3S)-1-phenyl-3-pyrrolidinyl]spiro[indoline-3,1′-cyclohexane]-4′-carboxamide]
0.69 nM | CS(=O)(=O)N1CC2(CCC(C(=O)NC(CNCc3ccccc3)Cc3ccccc3)CC2)c2ccccc21 [Example 45, Trans-N-[(S)-1-benzyl-2-(benzylamino)ethyl]-1-methylsulfonylspiro[indoline-3,1′-cyclohexane]-4′-carboxamide]
